Experimental data from patent US20170191032A1, “IDENTIFICATION AND ISOLATION OF NEURAL STEM CELLS AND NEUROSPHERE INITIATING CELLS” (The Board of Regents of the University of Texas System, priority 2014, published 2017).

Assays:
adult SVZ cells = assay: Neurosphere formation (clonogenesis) of adult SVZ cells with culture additives; type: cell-based, mouse
Excerpt: Rock inhibitor (Y-27632) and IGF1 increase clonogenesis after sorting. The process of being sorted has a negative effect on neurosphere formation from adult SVZ cells: at the beginning of their experiments the inventors observed a 3-fold loss of activity in sorted live SVZ cells compared to crude unsorted cells. […] The inventors wondered how to sort gently to overcome the fragility of adult SVZ cells.
(§1) The mechanisms underlying these effects are unclear but may involve promotion of cell survival after sorting or repression of BMP signaling (Hsieh et al., 2004). When using both these culture additives, there was little difference between sorted live SVZ cells and an equal number of cells added to culture by pipette in terms of the numbers of neurospheres they made.
After adding 10% CEE to the culture medium, sorted cell-derived primary neurospheres were indistinguishable in size and number from neurospheres cultured from cells pipetted into culture.
(§2) The cell suspension was then filtered through a 45-micron mesh, counted on a hemocytometer, and added to culture or processed for flow cytometry. […] For adherent colony formation, Tg(Ubc-GFP) SVZ cells were co-cultured with 80-90% confluent nontransgenic neonatal SVZ-derived astrocytes isolated and passaged twice prior to the experiment. GFP fluorescence was used to assess colony formation after 12-20 days in culture.

neonatal SVZ cells = assay: Neurosphere formation of neonatal SVZ cells with culture additive; type: cell-based, mouse; conditions: 10 μM
Excerpt: as §1

SVZ cells = assay: TMZ regeneration assay: total and dividing (BrdU) SVZ cells; type: in vivo, mouse
Excerpt: (§3) All data represent mean ±s.d.

NICs = assay: TMZ regeneration assay: neurosphere-initiating cells (NICs); type: in vivo, mouse
Excerpt: as §3, §2

[1] = Body mass after TMZ treatment; type: in vivo, mouse; conditions: three days after TMZ, 100 mg/kg/day i.p. for 3 consecutive days
GEPCOT cells [2] = assay: TMZ regeneration assay: GEPCOT cells per SVZ by flow cytometry; conditions: for number of unlabeled GEPCOTs per SVZ: Ascl1CreERT2 reporter mice, tamoxifen then TMZ
Experimental: TMZ regeneration assay. TMZ (temozolomide; Sigma T2577) was dissolved in 25% DMSO/75% 0.9% saline solution at 10 mg/ml by heating briefly to 90-100° C., then shaking and rapidly cooling. Mice were injected at 100 mg/kg/day for three consecutive days then allowed to recover for 3-90 days before analysis. Mice with enlarged spleen or thymus (sometimes present at 90 days after TMZ treatment) were excluded from analysis.
To stain SVZ cells with the combination of markers used to isolate GEPCOT or pre-GEPCOT cells, dissociated SVZ cells were centrifuged (220 g, 4 min, 4° C.) and resuspended in 100 μl staining medium per brain. Then the following antibodies were added: BV421 anti-Ter119 (Biolegend 116233, 1/100), BV421 anti-CD45 (Biolegend 103133, 1/100), APC-eFluor 780 anti-CD24 (eBioscience 47-0242-82, 1/200), 5A5 ascites (anti-PSA-NCAM; Developmental Studies Hybridoma Bank, 1/100), O4 ascites (1/200), anti-PlexinB2 (eBioscience 14-5665-82, 1/100), biotinylated anti-EGFR (R&D Systems BAF1280, 1/200), anti-Glast (Miltenyi Biotec 130-095-822, 1/10), and DAPI (50 μg/ml, 1/100). After adding antibodies, the cells were incubated on ice for 45 minutes, then washed with 2.5 ml fresh staining medium and pelleted (220 g for 4 minutes at 4° C.) and resuspended in secondary antibodies. Typically, the inventors used the following combination: APC anti-mouse IgG2a (Jackson Immunoresearch 115-135-206,1/200), PE anti-hamster IgG (Jackson Immunoresearch 127-115-160, 1/200), PE-Cy7 anti-mouse IgM (eBioscience 25-5790-82, 1/100), BV605-Streptavidin (BD Biosciences 563260, 1/200). However, when analyzing mice expressing tdTomato, the inventors used the following alternative secondary antibodies: PerCP-eFluor 710 anti-mouse IgG (eBioscience 46-4010-82, 1/100), APC anti-hamster IgG (Jackson Immunoresearch 127-135-160, 1/200), PE-Cy7 anti-mouse IgM (eBioscience 25-5790-82, 1/100), and BV605-Streptavidin (BD Biosciences 563260, 1/200). Cells were stained with secondary antibodies on ice for 45 minutes, then washed and pelleted as above, and analyzed on the FACSAria in a volume of 200 μl per brain.

GEPCOT cells [3] = conditions: 3.0 mM EDTA in staining medium (slight excess over 2.7 mM divalent cations)
Experimental: In the inventors' experiments, the staining medium the inventors employed contained 3.0 mM EDTA, enough to neutralize 2.7 mM of divalent cations in the staining medium (with a small surplus). […] The inventors pre-diluted 0.5M EDTA (made from Na2H2EDTA, pH 8.0) to 77.7 mM (309 mOsm) before adding it to the staining medium.
SVZ cell preparation. SVZs from adult (8-60 week old) mice were dissected as described (Mirzadeh et al., 2010). SVZs were minced and digested with 300 μl of trypsin solution (Ca and Mg-free HBSS, 10 mM HEPES, 0.5 mM EDTA, 0.25 mg/mL trypsin (EMD Millipore), 10 μg/mL DNase I (Roche), pH 7.6) at 37° C. for 20 minutes. Digestion was quenched with three volumes of staining medium (440 ml Leibovitz L-15 medium, 50 ml water, 5 ml 1M HEPES pH 7.3-7.4, 5 ml 100× Pen-Strep, 20 ml 77.7 mM EDTA pH 8.0 [prepared from Na2H2EDTA], 1 g bovine serum albumin [Sigma A7030]) containing 100 μg/ml trypsin inhibitor (Sigma T6522) and 10 μg/ml DNase I (Roche).

[4] = three days after TMZ (100 mg/kg/day i.p., 3 days)

Y-27632 hydrochloride
increase in neurosphere formation (adult SVZ cells; 10 μM in culture medium, adult cells after sorting): approximately two-fold | effect on neurosphere formation (adult SVZ cells; 10 μM, adult SVZ cells pipetted into the culture medium): did not have any effect | effect on neurosphere formation (neonatal SVZ cells; crude neonatal SVZ cells): did not have any effect | effect on neurosphere formation (neonatal SVZ cells; sorted neonatal SVZ cells): did not have any effect

Cn1nnc2c(C(N)=O)ncn2c1=O [TMZ, temozolomide]
number of dividing SVZ cells, recovery as % of normal (SVZ cells; 90 days after TMZ treatment): 50 % of normal | reduction in the number of dividing SVZ cells, based on BrdU incorporation (SVZ cells; [4]): 80% | reduction in the total number of cells per SVZ (SVZ cells; [4]): 23% | NICs recovered, % of normal levels (NICs; 16 days after TMZ treatment): 20 % of normal | NICs recovered, % of normal (NICs; 90 days after TMZ): 55 % of normal | NICs remaining relative to saline-treated control mice (NICs; three days after TMZ): 0.7% | loss of body mass as compared to before TMZ treatment [1]: less than 3% | GEPCOTs recovered, % of normal levels (GEPCOT cells [2]; 16 days after TMZ treatment): 32 % of normal | GEPCOTs recovered, % of normal levels (GEPCOT cells [2]; 90 days after TMZ treatment): 55 % of normal | number of unlabeled GEPCOTs per SVZ (GEPCOT cells [2]; 3 days after TMZ): 120±50 | number of unlabeled GEPCOTs per SVZ (GEPCOT cells [2]; 35 days after TMZ): 640±210 | GEPCOTs remaining relative to saline-treated control mice (GEPCOT cells [2]; three days after TMZ treatment): 10%

IGF1: IGF-1 growth factor (R&D Systems 291-G1) added to culture medium
clonogenesis after sorting (adult SVZ cells; 20 ng/ml in culture medium, in addition to Y-27632): further improved clonogenesis after sorting

O=C(O)CN(CCN(CC(=O)O)CC(=O)O)CC(=O)O [EDTA]
effect on the yield of GEPCOT cells (GEPCOT cells [3]): 2-3 fold
